In article PMC12441834, “Highly Potent and Subtype-Selective Sperm-Specific Potassium Channel SLO3 Inhibitors Display High Tissue Exposure in the Murine Female Reproductive Tract” (ACS Pharmacology & Translational Science, 2025):
Read-outs that look alike come from different tables or passages of the source.

Key:
hERG [1] = target: T1, hERG (Homo sapiens, UniProt Q12809); experiment: hERG patch clamp electrophysiology (HEK-293-hERG); assay type: cell-based; settings: for selectivity ratio: human, HEK-293 cells stably expressing hERG, pH 7.35, hERG IC50 / hSLO3 IC50, read-out: hERG selectivity [fold] (SLO3 versus hERG); for IC50: whole-cell patch clamp, HEK-293-hERG
T1 construct: expressed in transfected cells
Experimental: Whole-cell patch-clamp electrophysiology was used to record hERG currents from a stably transfected monoclonal cell line expressing human hERG. The HEK-293-hERG cell line was generously provided by Dr. David Weaver (Vanderbilt University). Cells were cultured in a 5% CO2 incubator at 37 °C, dissociated with 0.25% Trypsin-EDTA, and seeded onto 12 mm circular coverslips (Electron Microscopy Sciences, PA, USA) for same-day whole-cell patch-clamp recordings. hERG currents were recorded at room temperature by using an AxoPatch 200B amplifier with Clampex 10.7 software (Molecular Devices, USA). The voltage-clamp protocol consisted of a 4-s step to +30 mV from a −80 mV holding potential, followed by a 4-s step to −40 mV, repeated every 10 s. Data were sampled at 5 kHz and filtered at 1 kHz. Patch pipettes, pulled from 1.5 mm OD thin-walled capillaries (Warner Instruments, MA, USA) using a Sutter P-1000 puller (Sutter Instrument, CA, USA), had resistances of 2–3 MΩ when filled with intracellular solution containing (mM): 135 KCl, 10 HEPES, 1 EGTA, 2 MgCl2, 2 Na2ATP (pH 7.35, adjusted with KOH). The extracellular solution contained (mM): 135 NaCl, 5 KCl, 2 CaCl2, 1 MgCl2, 5 Glucose, 10 HEPES, and 10 Sucrose (pH 7.35, adjusted with NaOH). After establishing stable baseline hERG currents, cells were perfused with compounds at concentrations of 0.03–30 μM until response saturation (typically 2–8 min). Recordings concluded with a 10 μM Quinidine solution to isolate Quinidine-sensitive currents, with compound responses expressed as fractions of this current. Peak “tail” current amplitudes at the beginning of −40 mV steps were analyzed using Clampfit 11.2 (Molecular Devices). IC50 values were calculated by fitting the Hill equation to concentration–response curves (CRCs) using the built-in Y = Bottom + (Top – Bottom)/(1 + (IC50/X)^HillSlope) model (nonlinear regression fit: [Inhibitor] vs response – Variable slope (four parameters)) in GraphPad Prism 10.4 (GraphPad Software).

hSLO1 [2] = target: T2, hSLO1 (Homo sapiens, UniProt Q12791); experiment: SLO1 inhibition in HEK cells; assay type: cell-based; settings: for SLO1 selectivity (fold selective for SLO3): SLO1 IC50 / hSLO3 IC50
T2 construct: expressed in transfected cells; host or cells: HEK293
Experimental: (§1) HEK293 cells were transfected with the bicistronic vector pBUD-CE4.1 containing the genes of interest and a gene conferring antibiotic resistance. Cells were exposed to gradients of selection antibiotics, and optimal growth conditions for the stable lines were as follows: SLO3 and γ2 (SLO3-γ2) supplemented with 700 μg/mL Zeocin (Invitrogen); human SLO1 and β1 (SLO1-β1) with 1 mg/mL G418 (Sigma) and 3 μg/mL puromycin (Corning, Thermo Fisher); and human SLO1 and β4 (SLO1-β4) with 250 μg/mL Zeocin and 3 μg/mL puromycin. All cell lines were grown in Dulbecco’s Modified Eagle Medium (Gibco, Thermo Fisher) supplemented with 10% fetal bovine serum, 1% penicillin–streptomycin (Millipore Sigma), and selection antibiotics. To generate cells expressing SLO1 and γ2, stable SLO1-expressing HEK293 cells were transiently transfected with expression vectors for γ2 and green fluorescent protein (GFP) in the presence of lipofectamine (Invitrogen) for 5 h.
(§2) The cells were then washed and incubated in supplemented Dulbecco’s Modified Eagle Medium for 48 h before use. Patch-clamp electrophysiology was performed only on cells expressing GFP.
(§3) Currents in HEK293 cells were measured in the whole-cell patch-clamp configuration with an Axopatch 200B amplifier, digitized with a Digidata 1440A, and interfaced with Clampex 10.6.0.13 (Molecular Devices). […] An isolated cell was located on an Axiovert 200 microscope (Zeiss), and a gigaohm seal was formed with a borosilicate pipette with resistance between 3 and 6 MΩ and filled with internal solution (140 mM KMeSO3, 10 mM HEPES, 10 mM MES, 1 mM EGTA, pH 7). The seal was then broken by applying a negative pressure. Cells were kept at a holding potential of −60 mV for 50 ms, tested with a stepped voltage protocol from −80 to +150 mV in 10 mV increments for 100 ms, and then dropped to −40 mV for 50 ms with 2.5 s between sweeps. This protocol was used to record currents present with increasing concentration of our compound of interest or 3 μL/mL vehicle (DMSO) in the bath solution. Individual cells were tested with between 1 and 5 concentrations of the compound of interest or until the patch was lost. Currents were allowed to stabilize before the initial recording and after the perfusion solution was changed before recording.

human SLO3 [3] = target: T3, human SLO3 (Homo sapiens, UniProt A8MYU2); experiment: SLO3 patch-clamp electrophysiology, human SLO3-γ2 expressed in HEK293 cells; assay type: cell-based; settings: transfected HEK293 cells (human SLO3-γ2), whole-cell patch clamp, currents at +100 mV; read-out: hSLO3 IC50
T3 construct: expressed in transfected cells
T3 sequence (A8MYU2 1-1149): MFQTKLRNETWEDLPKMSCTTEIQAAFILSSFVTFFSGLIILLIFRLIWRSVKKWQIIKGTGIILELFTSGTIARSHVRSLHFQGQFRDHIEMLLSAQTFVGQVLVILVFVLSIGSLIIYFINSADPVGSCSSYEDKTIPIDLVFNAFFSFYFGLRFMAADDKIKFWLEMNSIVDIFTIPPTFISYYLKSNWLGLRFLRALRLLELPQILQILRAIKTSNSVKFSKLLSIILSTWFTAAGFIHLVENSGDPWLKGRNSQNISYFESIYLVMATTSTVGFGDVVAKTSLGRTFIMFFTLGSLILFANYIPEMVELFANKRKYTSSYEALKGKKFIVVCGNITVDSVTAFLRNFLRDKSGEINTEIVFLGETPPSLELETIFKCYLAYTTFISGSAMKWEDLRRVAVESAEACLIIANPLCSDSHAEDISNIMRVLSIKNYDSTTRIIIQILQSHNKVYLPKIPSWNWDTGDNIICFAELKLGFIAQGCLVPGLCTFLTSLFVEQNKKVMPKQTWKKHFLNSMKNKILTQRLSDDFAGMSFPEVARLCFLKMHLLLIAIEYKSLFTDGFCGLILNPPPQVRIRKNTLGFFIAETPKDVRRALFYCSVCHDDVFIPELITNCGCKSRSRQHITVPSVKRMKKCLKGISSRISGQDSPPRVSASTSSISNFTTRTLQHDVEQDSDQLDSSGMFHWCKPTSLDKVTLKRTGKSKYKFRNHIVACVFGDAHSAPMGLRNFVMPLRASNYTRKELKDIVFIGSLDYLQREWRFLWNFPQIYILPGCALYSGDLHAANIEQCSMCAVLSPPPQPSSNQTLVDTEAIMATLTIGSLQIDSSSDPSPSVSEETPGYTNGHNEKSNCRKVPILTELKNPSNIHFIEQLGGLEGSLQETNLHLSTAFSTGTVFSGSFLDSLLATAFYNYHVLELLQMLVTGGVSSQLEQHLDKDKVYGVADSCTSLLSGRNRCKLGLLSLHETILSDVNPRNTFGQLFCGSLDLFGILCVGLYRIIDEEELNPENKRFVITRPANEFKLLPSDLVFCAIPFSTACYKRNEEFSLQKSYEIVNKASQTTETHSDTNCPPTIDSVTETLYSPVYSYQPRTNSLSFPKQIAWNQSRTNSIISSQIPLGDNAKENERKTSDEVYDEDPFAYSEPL
T3 sequence (Q8N7C0 24-313 partner): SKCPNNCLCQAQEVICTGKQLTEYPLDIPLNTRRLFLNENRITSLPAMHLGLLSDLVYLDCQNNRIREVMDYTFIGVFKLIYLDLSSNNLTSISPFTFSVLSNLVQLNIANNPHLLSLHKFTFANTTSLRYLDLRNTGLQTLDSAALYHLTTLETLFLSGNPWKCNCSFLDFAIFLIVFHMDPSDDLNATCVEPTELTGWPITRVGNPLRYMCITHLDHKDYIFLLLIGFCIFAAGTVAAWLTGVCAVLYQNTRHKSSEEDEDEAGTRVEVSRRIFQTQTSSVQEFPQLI
Experimental: as §1, §2, §3
Data were analyzed with a pClamp 10.6 (Molecular Devices). VU6047606 and VU6032735 inhibition dose–response relationships were fit by the Hill equation in OriginPro 7.5 (OriginLab Corporation): R=1/1+(C/IC50)^n+Ioff , in which R is fractional unblock, C is compound concentration, IC50 is the half inhibition concentration, n is the Hill coefficient, and I off is an offset item for leak current. Error bars in the figures represent the SDs. Each data point is averaged from at least 5 measurements. Curve-fitting results are reported as the fitted values with standard error, which was estimated by OriginPro according to the Error Propagation formula.

hERG [4] = target: T1, hERG; design: method as in PMID 36649421; settings: cited from earlier work
human SLO3 [5] = target: T3, human SLO3; design: method as in PMID 36649421; settings: earlier work of the Santi Lab; cited from earlier work
hSLO1 [6] = target: T2, hSLO1; design: method as in PMID 36649421; settings: cited from earlier work

T1 sequence (Q12809 whole entry): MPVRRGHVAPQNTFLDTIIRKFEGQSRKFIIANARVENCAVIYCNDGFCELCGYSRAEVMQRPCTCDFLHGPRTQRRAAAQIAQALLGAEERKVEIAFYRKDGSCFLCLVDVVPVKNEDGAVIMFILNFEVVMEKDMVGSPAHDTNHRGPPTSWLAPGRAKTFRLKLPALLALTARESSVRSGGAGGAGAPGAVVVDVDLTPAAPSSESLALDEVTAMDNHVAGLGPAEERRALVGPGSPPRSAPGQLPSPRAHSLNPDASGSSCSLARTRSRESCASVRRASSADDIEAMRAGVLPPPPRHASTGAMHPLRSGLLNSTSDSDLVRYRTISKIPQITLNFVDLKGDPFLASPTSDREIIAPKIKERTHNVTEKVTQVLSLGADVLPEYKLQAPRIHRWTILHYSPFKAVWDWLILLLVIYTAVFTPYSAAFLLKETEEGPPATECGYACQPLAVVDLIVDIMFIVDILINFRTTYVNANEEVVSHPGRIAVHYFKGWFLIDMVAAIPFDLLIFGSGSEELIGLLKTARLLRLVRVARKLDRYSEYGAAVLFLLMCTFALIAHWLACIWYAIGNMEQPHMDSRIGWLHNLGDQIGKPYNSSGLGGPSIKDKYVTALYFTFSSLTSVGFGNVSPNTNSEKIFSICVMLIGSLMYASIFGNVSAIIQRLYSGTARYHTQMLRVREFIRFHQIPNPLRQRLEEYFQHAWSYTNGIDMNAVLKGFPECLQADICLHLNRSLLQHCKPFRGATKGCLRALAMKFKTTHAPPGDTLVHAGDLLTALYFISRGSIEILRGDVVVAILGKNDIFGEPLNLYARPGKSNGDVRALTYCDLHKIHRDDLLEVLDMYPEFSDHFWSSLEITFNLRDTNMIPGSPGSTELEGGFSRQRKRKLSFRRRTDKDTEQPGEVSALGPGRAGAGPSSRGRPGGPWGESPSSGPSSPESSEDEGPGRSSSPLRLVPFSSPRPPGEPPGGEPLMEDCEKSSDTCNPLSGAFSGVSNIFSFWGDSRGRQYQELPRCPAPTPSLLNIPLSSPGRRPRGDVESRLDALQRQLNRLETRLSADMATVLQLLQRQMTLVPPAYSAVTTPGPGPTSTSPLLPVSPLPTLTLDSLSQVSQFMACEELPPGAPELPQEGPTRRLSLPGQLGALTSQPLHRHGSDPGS
T2 sequence (Q12791 whole entry): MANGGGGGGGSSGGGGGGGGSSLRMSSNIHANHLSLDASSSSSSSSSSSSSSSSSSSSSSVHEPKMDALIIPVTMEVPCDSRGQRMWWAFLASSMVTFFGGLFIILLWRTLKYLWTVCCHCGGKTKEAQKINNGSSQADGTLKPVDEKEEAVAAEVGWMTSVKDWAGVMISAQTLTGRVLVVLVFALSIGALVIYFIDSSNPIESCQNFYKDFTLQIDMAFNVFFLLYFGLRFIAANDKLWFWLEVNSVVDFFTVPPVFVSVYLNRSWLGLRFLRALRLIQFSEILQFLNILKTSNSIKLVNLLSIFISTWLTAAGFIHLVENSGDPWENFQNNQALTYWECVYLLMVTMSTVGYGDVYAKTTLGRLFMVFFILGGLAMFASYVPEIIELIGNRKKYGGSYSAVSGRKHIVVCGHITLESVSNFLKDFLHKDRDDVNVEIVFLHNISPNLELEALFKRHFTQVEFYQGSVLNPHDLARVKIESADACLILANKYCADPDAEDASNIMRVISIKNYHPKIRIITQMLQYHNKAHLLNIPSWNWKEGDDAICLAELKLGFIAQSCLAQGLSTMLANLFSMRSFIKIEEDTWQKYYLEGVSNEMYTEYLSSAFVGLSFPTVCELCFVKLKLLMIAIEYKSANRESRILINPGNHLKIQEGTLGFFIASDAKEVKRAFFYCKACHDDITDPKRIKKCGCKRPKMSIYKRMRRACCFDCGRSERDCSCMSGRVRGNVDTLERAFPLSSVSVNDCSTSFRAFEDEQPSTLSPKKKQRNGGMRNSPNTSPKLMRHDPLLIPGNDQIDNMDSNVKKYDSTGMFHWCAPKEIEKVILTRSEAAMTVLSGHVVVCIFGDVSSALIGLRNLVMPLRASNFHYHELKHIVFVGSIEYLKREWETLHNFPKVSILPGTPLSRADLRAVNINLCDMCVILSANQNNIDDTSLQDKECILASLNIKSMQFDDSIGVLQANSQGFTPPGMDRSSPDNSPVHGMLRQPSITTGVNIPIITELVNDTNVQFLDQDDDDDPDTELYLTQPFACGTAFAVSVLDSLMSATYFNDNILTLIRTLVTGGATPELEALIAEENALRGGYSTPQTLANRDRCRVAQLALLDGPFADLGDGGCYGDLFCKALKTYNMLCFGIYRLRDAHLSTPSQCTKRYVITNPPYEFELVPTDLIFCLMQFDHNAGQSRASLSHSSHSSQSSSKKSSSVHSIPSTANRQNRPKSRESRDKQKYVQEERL

Row | Structure (SMILES) | selectivity ratio (hERG [1]) | IC50 (hERG [1]) | IC50 (hSLO1 [2]) | SLO1 selectivity (fold selective for SLO3) (hSLO1 [2]) | IC50 (human SLO3 [3]) | selectivity for SLO3 over hERG (hERG [4]) | IC50 (human SLO3 [5]) | selectivity for SLO3 over SLO1 (hSLO1 [6])
1 | O=C(CCCS(=O)(=O)c1ccc(Cl)cc1)N1CCC(Oc2nc3ccccc3s2)CC1 [VU0528254] | 4.2 | 928 nM | 34000 nM | 153 fold | 223 nM | – | – | –
2 | O=C(c1ccc(OCc2nc(C3CC3)cs2)cc1)N1CCN(c2ccc(C(F)(F)F)cn2)CC1 [VU0530373] | 1.1 | 511 nM | 6380 nM | 14 fold | 445 nM | – | – | –
3 | COc1ccc(SCC2CCN(C(=O)Cc3ccc(S(=O)(=O)C(C)C)cc3)CC2)cc1 [VU0546110] | – | – | – | – | – | 1.5 fold | 1290 nM | 46 fold
